# Patent publication US20020137929A1, “1 - (3-heterocyclylphenyl) isothiourea, -isourea, -guanidine and -amidine herbicidal agents” (Intellectual Property Department, BASF Aktiengesellschaft, priority 1998, published 2002)
# Assays:
# GALAP (Galium) [1] = assay: Preemergence herbicidal evaluation; format: in vivo, Galium aparine; conditions: rated 4-5 weeks after treatment
# How it was run: (§1)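 In this greenhouse assay, monocot and dicot seeds are planted in soil and treated prior to emergence with an aqueous acetone spray (about 0.0156-0.500 kg/ha). Plants are assessed visually against control on a 0-9 scale after 4-5 weeks.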
# ABUTH (Velvetleaf) = assay: Postemergence herbicidal evaluation; format: in vivo, Abutilon theophrasti; conditions: postemergence
# How it was run: (§2)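 Visual 0–9 rating versus control (stand, vigor, malformation, size, chlorosis, overall appearance), taken four to five weeks post-spray. Two-week-old seedlings received roughly 0.0156–0.500 kg/ha active in acetone/water (50/50) with 0.5% TWEEN 20 via nozzle at 40 psi.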
# ORYSAT (Rice, Tebonnet) = assay: Preemergence herbicidal evaluation; format: in vivo, Oryza sativa, (L.) Tebonnet; conditions: rated 4-5 weeks after treatment
# How it was run: as §1
# [2] = system: TRZAWR (Wheat, Winter, cv Riband); assay: Preemergence herbicidal evaluation; format: in vivo, Triticum aestivum; conditions: rated 4-5 weeks after treatment
# How it was run: as §1
# CASOB (Sicklepod) [3] = assay: Postemergence herbicidal evaluation; format: in vivo, Cassia obtusifolia; conditions: postemergence
# How it was run: as §2
# [4] = system: CHEAL (Lambsquarters, Common); assay: Postemergence herbicidal evaluation; format: in vivo, Chenopodium album; conditions: postemergence
# How it was run: as §2
# [5] = system: TRZAWR (Wheat, Winter, cv Riband); assay: Postemergence herbicidal evaluation; format: in vivo, Triticum aestivum; conditions: postemergence
# How it was run: as §2
# [6] = system: IPOHE (Morningglory, Ivyleaf); assay: Postemergence herbicidal evaluation; format: in vivo, Ipomoea hederacea; conditions: postemergence
# How it was run: as §2
# [7] = system: GLXMAW (Soybean, Williams); assay: Preemergence herbicidal evaluation; format: in vivo, Glycine max, (L.) Merr. cv Williams; conditions: rated 4-5 weeks after treatment
# How it was run: as §1
# ZEAMX (Corn, Field) = assay: Postemergence herbicidal evaluation; format: in vivo, Zea mays; conditions: postemergence
# How it was run: as §2
# SETVI (Foxtail, Green) = assay: Preemergence herbicidal evaluation; format: in vivo, Setaria viridis; conditions: rated 4-5 weeks after treatment
# How it was run: as §1
# [8] = system: IPOHE (Morningglory, Ivyleaf); assay: Preemergence herbicidal evaluation; format: in vivo, Ipomoea hederacea; conditions: rated 4-5 weeks after treatment
# How it was run: as §1
# CASOB (Sicklepod) [9] = assay: Preemergence herbicidal evaluation; format: in vivo, Cassia obtusifolia; conditions: rated 4-5 weeks after treatment
# How it was run: as §1
# GALAP (Galium) [10] = assay: Postemergence herbicidal evaluation; format: in vivo, Galium aparine; conditions: postemergence
# How it was run: as §2
# [11] = system: SAGPY (Arrowhead (Pygmaea)); assay: Preemergence weed control under flooded paddy conditions; format: in vivo, Sagittaria pygmaea; conditions: rated 3-4 weeks after treatment
# How it was run: (§3)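 Seeds or propagules sown in top 0.5 cm of silt loam soil, flooded 1.5 to 3 cm above surface throughout. Compound in 50/50 v/v aqueous/acetone pipetted into flood water at about 0.0313 to 0.500 kg/ha. Visual 0-9 rating versus control after three to four weeks in greenhouse.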
# ECHCG (Barnyardgrass) = assay: Preemergence herbicidal evaluation; format: in vivo, Echinochloa crus-galli; conditions: rated 4-5 weeks after treatment
# How it was run: as §1
# MOOVA (Monochoria) = assay: Preemergence weed control under flooded paddy conditions; format: in vivo, Monochoria vaginalis; conditions: rated 3-4 weeks after treatment
# How it was run: as §3
compound,measurement,setting,value
"CCOC(=O)CN1C(=O)C(Cc2ccccc2OC(C)C(=O)O)S/C1=N/c1cc(-n2c(=O)cc(C(F)(F)F)n(C)c2=O)c(F)cc1Cl (stereo not drawn) [Compound 114, 5-[o-(1-Carboxyethoxy)benzyl]-2-{{2-chloro-5-[3,6-dihydro-3-methyl-2,6-dioxo-4-(trifluoromethyl)-1(2H)-pyrimidinyl]-4-fluorophenyl}imino}-4-oxo-3-thiazolidineacetic acid, 3-ethyl ester]",Preemergence herbicidal rating GALAP,GALAP (Galium) [1]; rate 0.0156 kg/ha,0.0
same,Preemergence herbicidal rating GALAP,GALAP (Galium) [1]; rate 0.0313 kg/ha,0.0
same,Preemergence herbicidal rating GALAP,GALAP (Galium) [1]; rate 0.0625 kg/ha,3.0
same,Preemergence herbicidal rating GALAP,GALAP (Galium) [1]; rate 0.1250 kg/ha,7.0
same,Preemergence herbicidal rating GALAP,GALAP (Galium) [1]; rate 0.2500 kg/ha,9.0
same,herbicidal rating ABUTH,ABUTH (Velvetleaf); rate 0.0158 kg/ha,9.0
same,herbicidal rating ABUTH,ABUTH (Velvetleaf); rate 0.0315 kg/ha,9.0
same,herbicidal rating ABUTH,ABUTH (Velvetleaf); rate 0.0630 kg/ha,9.0
same,Preemergence herbicidal rating ORYSAT,"ORYSAT (Rice, Tebonnet); rate 0.0156 kg/ha",0.0
same,Preemergence herbicidal rating ORYSAT,"ORYSAT (Rice, Tebonnet); rate 0.0313 kg/ha",0.0
same,Preemergence herbicidal rating ORYSAT,"ORYSAT (Rice, Tebonnet); rate 0.0625 kg/ha",0.0
same,Preemergence herbicidal rating ORYSAT,"ORYSAT (Rice, Tebonnet); rate 0.1250 kg/ha",2.0
same,Preemergence herbicidal rating ORYSAT,"ORYSAT (Rice, Tebonnet); rate 0.2500 kg/ha",2.0
same,Preemergence herbicidal rating TRZAWR,[2]; rate 0.0156 kg/ha,0.0
same,Preemergence herbicidal rating TRZAWR,[2]; rate 0.0313 kg/ha,0.0
same,Preemergence herbicidal rating TRZAWR,[2]; rate 0.0625 kg/ha,0.0
same,Preemergence herbicidal rating TRZAWR,[2]; rate 0.1250 kg/ha,1.0
same,Preemergence herbicidal rating TRZAWR,[2]; rate 0.2500 kg/ha,3.0
same,herbicidal rating CASOB,CASOB (Sicklepod) [3]; rate 0.0158 kg/ha,1.0
same,herbicidal rating CASOB,CASOB (Sicklepod) [3]; rate 0.0315 kg/ha,1.0
same,herbicidal rating CASOB,CASOB (Sicklepod) [3]; rate 0.0630 kg/ha,1.0
same,herbicidal rating CHEAL,[4]; rate 0.0158 kg/ha,7.0
same,herbicidal rating CHEAL,[4]; rate 0.0315 kg/ha,6.0
same,herbicidal rating CHEAL,[4]; rate 0.0630 kg/ha,9.0
same,herbicidal rating TRZAWR,[5]; rate 0.0158 kg/ha,2.0
same,herbicidal rating TRZAWR,[5]; rate 0.0315 kg/ha,3.0
same,herbicidal rating TRZAWR,[5]; rate 0.0630 kg/ha,4.0
same,herbicidal rating IPOHE,[6]; rate 0.0158 kg/ha,9.0
same,herbicidal rating IPOHE,[6]; rate 0.0315 kg/ha,9.0
same,herbicidal rating IPOHE,[6]; rate 0.0630 kg/ha,9.0
same,Preemergence herbicidal rating GLXMAW,[7]; rate 0.0156 kg/ha,0.0
same,Preemergence herbicidal rating GLXMAW,[7]; rate 0.0313 kg/ha,1.0
same,Preemergence herbicidal rating GLXMAW,[7]; rate 0.0625 kg/ha,0.0
same,Preemergence herbicidal rating GLXMAW,[7]; rate 0.1250 kg/ha,2.0
same,Preemergence herbicidal rating GLXMAW,[7]; rate 0.2500 kg/ha,3.0
same,herbicidal rating ZEAMX,"ZEAMX (Corn, Field); rate 0.0158 kg/ha",6.5
same,herbicidal rating ZEAMX,"ZEAMX (Corn, Field); rate 0.0315 kg/ha",7.0
same,herbicidal rating ZEAMX,"ZEAMX (Corn, Field); rate 0.0630 kg/ha",7.0
same,Preemergence herbicidal rating SETVI,"SETVI (Foxtail, Green); rate 0.0156 kg/ha",0.0
same,Preemergence herbicidal rating SETVI,"SETVI (Foxtail, Green); rate 0.0313 kg/ha",0.0
same,Preemergence herbicidal rating SETVI,"SETVI (Foxtail, Green); rate 0.0625 kg/ha",2.0
same,Preemergence herbicidal rating SETVI,"SETVI (Foxtail, Green); rate 0.1250 kg/ha",7.0
same,Preemergence herbicidal rating SETVI,"SETVI (Foxtail, Green); rate 0.2500 kg/ha",9.0
same,Preemergence herbicidal rating IPOHE,[8]; rate 0.0156 kg/ha,0.0
same,Preemergence herbicidal rating IPOHE,[8]; rate 0.0313 kg/ha,0.0
same,Preemergence herbicidal rating IPOHE,[8]; rate 0.0625 kg/ha,0.0
same,Preemergence herbicidal rating IPOHE,[8]; rate 0.1250 kg/ha,9.0
same,Preemergence herbicidal rating IPOHE,[8]; rate 0.2500 kg/ha,7.0
same,Preemergence herbicidal rating CASOB,CASOB (Sicklepod) [9]; rate 0.0156 kg/ha,0.0
same,Preemergence herbicidal rating CASOB,CASOB (Sicklepod) [9]; rate 0.0313 kg/ha,0.0
same,Preemergence herbicidal rating CASOB,CASOB (Sicklepod) [9]; rate 0.0625 kg/ha,1.0
same,Preemergence herbicidal rating CASOB,CASOB (Sicklepod) [9]; rate 0.1250 kg/ha,3.0
same,Preemergence herbicidal rating CASOB,CASOB (Sicklepod) [9]; rate 0.2500 kg/ha,9.0
same,herbicidal rating GALAP,GALAP (Galium) [10]; rate 0.0158 kg/ha,1.0
same,herbicidal rating GALAP,GALAP (Galium) [10]; rate 0.0315 kg/ha,1.0
same,herbicidal rating GALAP,GALAP (Galium) [10]; rate 0.0630 kg/ha,3.0
same,SAGPY herbicidal effect rating,[11]; 0.0313 kg/ha,3.5
same,SAGPY herbicidal effect rating,[11]; 0.0625 kg/ha,3.5
same,SAGPY herbicidal effect rating,[11]; 0.1250 kg/ha,3.5
same,SAGPY herbicidal effect rating,[11]; 0.2500 kg/ha,4.5
same,Preemergence herbicidal rating ECHCG,ECHCG (Barnyardgrass); rate 0.0156 kg/ha,0.0
same,Preemergence herbicidal rating ECHCG,ECHCG (Barnyardgrass); rate 0.0313 kg/ha,0.0
same,Preemergence herbicidal rating ECHCG,ECHCG (Barnyardgrass); rate 0.0625 kg/ha,0.0
same,Preemergence herbicidal rating ECHCG,ECHCG (Barnyardgrass); rate 0.1250 kg/ha,2.0
same,Preemergence herbicidal rating ECHCG,ECHCG (Barnyardgrass); rate 0.2500 kg/ha,4.0
same,MOOVA herbicidal effect rating,MOOVA (Monochoria); 0.0313 kg/ha,9.0
same,MOOVA herbicidal effect rating,MOOVA (Monochoria); 0.0625 kg/ha,9.0
same,MOOVA herbicidal effect rating,MOOVA (Monochoria); 0.1250 kg/ha,9.0
same,MOOVA herbicidal effect rating,MOOVA (Monochoria); 0.2500 kg/ha,9.0
